Measurements from patent US8211945B2, “Carba-sugar amine derivative and glycolipid metabolic disorder treating agent containing the same as active ingredient” (Seikagaku Corporation, priority 2001, dated 2012).
Residue numbers refer to the chain shown, from its start.

Key:
Experiment in all cases: Mutant β-galactosidase activity in model cells, 4 days culture
Type in all cases: cell-based
[1] = target: T1, human mutant β-galactosidase T82M (Homo sapiens, UniProt P16278, T82M)
T1 construct: expressed in transfected cells; host or cells: SV40-immortalized skin fibroblasts of a β-galactosidase-deficient knockout mouse
T1 sequence (P16278 29-677 T82M): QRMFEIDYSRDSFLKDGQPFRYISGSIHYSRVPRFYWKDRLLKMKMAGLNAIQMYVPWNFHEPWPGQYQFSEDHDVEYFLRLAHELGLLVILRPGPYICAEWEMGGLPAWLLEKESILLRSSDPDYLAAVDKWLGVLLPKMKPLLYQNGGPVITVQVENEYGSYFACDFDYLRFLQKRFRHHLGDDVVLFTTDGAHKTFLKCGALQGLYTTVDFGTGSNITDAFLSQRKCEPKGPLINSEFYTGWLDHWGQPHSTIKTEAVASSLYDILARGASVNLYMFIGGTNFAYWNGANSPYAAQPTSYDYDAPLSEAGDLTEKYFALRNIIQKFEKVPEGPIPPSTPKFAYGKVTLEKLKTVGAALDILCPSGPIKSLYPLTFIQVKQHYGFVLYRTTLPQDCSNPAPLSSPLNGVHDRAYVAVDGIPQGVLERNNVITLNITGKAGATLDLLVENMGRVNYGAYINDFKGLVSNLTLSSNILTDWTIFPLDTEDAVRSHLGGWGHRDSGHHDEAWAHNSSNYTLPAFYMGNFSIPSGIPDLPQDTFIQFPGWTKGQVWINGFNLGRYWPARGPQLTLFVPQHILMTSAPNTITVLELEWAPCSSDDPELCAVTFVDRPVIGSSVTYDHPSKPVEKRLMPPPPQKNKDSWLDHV
From the text: (§1) Cultured skin fibroblasts of a β-galactosidase-deficient knockout mouse was immortalized by introducing an SV40 viral gene, and enzyme genes integrated into pSV2neo and an expression vector were also introduced simultaneously, thereby establishing a model cell (Brain Dev., 23(5), 284-287, 2001). The genes used are human normal (GP8) and mutant β-galactosidase gene Y316C, G123R (infantile GM1-gangliosidosis), R201C (juvenile GM1-gangliosidosis), 151T, T82M, R201H, R263S, R457Q (adult GM1-gangliosidosis), W273L, Y83H, R482H and R482C (Morquio-B disease) (Hum. Genet., 93(2), 109-114, 1994).
(§2) As a control substance, 0.5 mM N-(n-butyl)-deoxygalactonojirimycin (NB-DGJ: The Journal of Biological Chemistry, 269, 27108-27114 (1994)) was used, and the substance 18 of the present invention was used in an amount of 0.2 μM.
(§3) Specifically, after culturing the model cell for 4 days using a cell culture medium (10% FCS DMEM) containing the substance 18 of the present invention, the resulting cells were recovered and diluted such that the amount of protein in the suspension became a predetermined level, and then enzyme activity in the diluted suspension was measured. Using 4-methylumbelliferyl-β-D-galactopyranoside as the fluorescent substrate, the enzyme activity during 30 minutes was measured at 37° C.

[2] = target: T2, human mutant β-galactosidase G123R (Homo sapiens, UniProt P16278, G123R)
T2 construct: expressed in transfected cells; host or cells: SV40-immortalized skin fibroblasts of a β-galactosidase-deficient knockout mouse
T2 sequence (P16278 29-677 G123R): T1 sequence (P16278 29-677 T82M) with M54T, G95R
From the text: as §1, §2, §3

[3] = target: T3, human mutant β-galactosidase I51T (Homo sapiens, UniProt P16278, I51T)
T3 construct: expressed in transfected cells; host or cells: SV40-immortalized skin fibroblasts of a β-galactosidase-deficient knockout mouse
T3 sequence (P16278 29-677 I51T): T1 sequence (P16278 29-677 T82M) with I23T, M54T
From the text: as §1, §2, §3

SMILES | Relative ratio (×100%) ([1]; T82M, substance 18 vs control) | enzyme activity ([1]; transferred gene T82M, 0.2 μM, 4 days) | Relative ratio (×100%) ([2]; G123R, substance 18 vs control) | enzyme activity ([2]; transferred gene G123R, 0.2 μM, 4 days) | Relative ratio (×100%) ([3]; I51T, substance 18 vs control) | enzyme activity ([3]; transferred gene I51T, 0.2 μM, 4 days) | enzyme activity, Control ([1]; transferred gene T82M, control substance 0.5 mM NB-DGJ) | enzyme activity, Control ([2]; transferred gene G123R, control substance 0.5 mM NB-DGJ) | enzyme activity, Control ([3]; transferred gene I51T, control substance 0.5 mM NB-DGJ)
CCCCCCCCN[C@@H]1C=C(CO)[C@H](O)C(O)[C@@H]1O (stereo partly drawn) [Substance 18, N-octyl-5a-carba-α-L-arabino-hexo-5(5a)-enopyranosylamine] | 0.88 ×100% | 0.59 | 1.55 ×100% | 0.20 | 3.08 ×100% | 4.37 |  |  | 
CCCCN1C[C@H](O)[C@@H](O)[C@@H](O)[C@H]1CO [Control, N-(n-butyl)-deoxygalactonojirimycin, reference compound] |  |  |  |  |  |  | 0.67 | 0.13 | 1.42
